Assay results as given in ChEMBL document CHEMBL4371067, “Discovery of N-substituted 7-azaindoles as Pan-PIM kinases inhibitors - Lead optimization - Part III” (Bioorg Med Chem Lett, 2019).
≈ marks a conversion by molar mass, not a printed value.

Legend:
[1] = Cmax in nude mouse xenografted with human KG1 cells at 12.5 mg/kg, po bid for 18 days measured at 8 hrs post last dose; type: ADME, organism-based; design: dose 12.5 mg/kg, route oral; conditions: in vivo
[2] = Cmax in nude mouse xenografted with human KG1 cells at 25 mg/kg, po bid for 18 days measured at 8 hrs post last dose; type: ADME, organism-based; design: dose 25 mg/kg, route oral; conditions: in vivo
[3] = Clearance in human liver microsomes assessed as drug extraction at 5 uM; type: ADME, Microsome; conditions: liver microsomes, read-out: CLH
[4] = Plasma concentration in mouse xenografted with human KG1 cells at 25 mg/kg, po administered as single dose and measured at 24 hrs post dose; type: ADME, organism-based
[5] = Drug uptake in tumor of mouse xenografted with human KG1 cells at 25 mg/kg, po administered as single dose and measured at 8 hrs post dose; type: ADME, organism-based, Neoplasm; conditions: read-out: Drug uptake
[6] = Protein binding in mouse plasma; type: ADME, cell-free; conditions: read-out: PPB (converted)
[7] = target: Ribosomal protein S6 kinase alpha-2 (Homo sapiens) (UniProt Q15349); experiment: Inhibition of RSK3 (unknown origin) at 1 uM relative to control
[8] = Cmax in rat at 10 mg/kg, po administered as single dose; type: ADME, organism-based; design: dose 10 mg/kg, route oral; conditions: in vivo
[9] = target: Glycogen synthase kinase-3 alpha (Homo sapiens) (UniProt P49840); experiment: Inhibition of GSK3alpha (unknown origin) at 0.1 uM relative to control
[10] = Cmax in nude mouse xenografted with human KG1 cells at 50 mg/kg, po bid for 18 days measured at 8 hrs post last dose; type: ADME, organism-based; design: dose 50 mg/kg, route oral; conditions: in vivo
[11] = target: Ribosomal protein S6 kinase alpha-2 (Homo sapiens) (UniProt Q15349); experiment: Inhibition of RSK3 (unknown origin) at 0.1 uM relative to control
[12] = test system: Mus musculus; experiment: In vivo inhibition of PIM in mouse xenografted with human KG1 cells assessed as reduction in phosphorylated BAD level at 25 mg/kg, po administered as single dose and measured at 8 hrs post dose relative to control; type: functional; conditions: KG-1, po
[13] = target: T1, Dual specificity tyrosine-phosphorylation-regulated kinase 3 (Homo sapiens) (UniProt O43781); experiment: Inhibition of DYRK3 (unknown origin) at 0.1 uM relative to control
T1 sequence (whole entry): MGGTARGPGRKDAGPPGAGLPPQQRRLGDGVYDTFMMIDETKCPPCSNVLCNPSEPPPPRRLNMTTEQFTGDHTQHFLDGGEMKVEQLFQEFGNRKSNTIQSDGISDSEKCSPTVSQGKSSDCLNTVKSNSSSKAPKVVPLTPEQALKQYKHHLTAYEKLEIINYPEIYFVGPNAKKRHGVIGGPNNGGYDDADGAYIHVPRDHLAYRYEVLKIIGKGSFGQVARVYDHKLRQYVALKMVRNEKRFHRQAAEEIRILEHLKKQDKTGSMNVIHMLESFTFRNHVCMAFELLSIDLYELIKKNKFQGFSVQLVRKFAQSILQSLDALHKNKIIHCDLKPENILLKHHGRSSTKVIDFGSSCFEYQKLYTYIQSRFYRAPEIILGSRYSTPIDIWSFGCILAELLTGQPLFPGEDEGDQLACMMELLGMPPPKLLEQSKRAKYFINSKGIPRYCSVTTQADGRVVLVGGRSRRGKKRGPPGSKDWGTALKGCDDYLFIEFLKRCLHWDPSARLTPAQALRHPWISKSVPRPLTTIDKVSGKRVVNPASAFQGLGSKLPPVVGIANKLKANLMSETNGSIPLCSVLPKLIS

[14] = Drug uptake in tumor of mouse xenografted with human KG1 cells at 25 mg/kg, po administered as single dose and measured at 24 hrs post dose; type: ADME, organism-based, Neoplasm; conditions: read-out: Drug uptake
[15] = Clearance in rat at 3 mg/kg, iv administered as single dose; type: ADME, organism-based; conditions: in vivo
[16] = Permeability in human Caco2/TC7 cells at 5 uM; type: ADME, cell-based; conditions: Caco-2, read-out: permeability
[17] = Oral bioavailability in rat at 10 mg/kg administered as single dose; type: ADME, organism-based; conditions: in vivo
[18] = Thermodynamic solubility in pH 7.4 solution; type: physicochemical; conditions: buffer, read-out: Therm_solubility
[19] = Clearance in mouse liver microsomes assessed as drug extraction at 5 uM; type: ADME, Microsome; conditions: liver microsomes, read-out: CLH
[20] = target: Cyclin-dependent kinase 2 (Homo sapiens) (UniProt P24941); experiment: Inhibition of CDK2 (unknown origin) at 0.1 uM relative to control
[21] = target: Cyclin-dependent kinase 3 (Homo sapiens) (UniProt Q00526); experiment: Inhibition of CDK3 (unknown origin) at 0.1 uM relative to control
[22] = target: Serine/threonine-protein kinase pim-1 (Homo sapiens, UniProt P11309); experiment: Inhibition of PIM1 (unknown origin) assessed as reduction in BAD phosphorylation at Ser-112 residue by TR-FRET assay
[23] = Half life in rat at 10 mg/kg, po administered as single dose; type: ADME, organism-based; conditions: in vivo
[24] = target: Glycogen synthase kinase-3 beta (Homo sapiens) (UniProt P49841); experiment: Inhibition of GSK3beta (unknown origin) at 1 uM relative to control
[25] = target: Cyclin-dependent kinase 1 (Homo sapiens) (UniProt P06493); experiment: Inhibition of CDK1 (unknown origin) at 1 uM relative to control
[26] = test system: KG-1; experiment: Antitumor activity against human KG1 cells xenografted in nude mouse assessed as tumor growth at 25 mg/kg, po bid for 18 days relative to control; type: functional
[27] = target: Glycogen synthase kinase-3 alpha (Homo sapiens) (UniProt P49840); experiment: Inhibition of GSK3alpha (unknown origin) at 1 uM relative to control
[28] = target: Glycogen synthase kinase-3 beta (Homo sapiens) (UniProt P49841); experiment: Inhibition of GSK3beta (unknown origin) at 0.1 uM relative to control
[29] = test system: Mus musculus; experiment: In vivo inhibition of PIM in mouse xenografted with human KG1 cells assessed as reduction in phosphorylated BAD level at 25 mg/kg, po administered as single dose and measured up to 24 hrs post dose relative to control; type: functional; conditions: KG-1, po
[30] = Volume of distribution at steady state in rat at 3 mg/kg, iv administered as single dose; type: ADME, organism-based; conditions: in vivo, read-out: Vdss
[31] = target: Cyclin-dependent kinase 5 (Homo sapiens) (UniProt Q00535); experiment: Inhibition of CDK5 (unknown origin) at 0.1 uM relative to control
[32] = AUC (0 to infinity) in rat at 10 mg/kg, po administered as single dose; type: ADME, organism-based; design: dose 10 mg/kg, route oral, time infinity; conditions: in vivo
[33] = test system: KG-1; experiment: Antitumor activity against human KG1 cells xenografted in nude mouse assessed as tumor growth at 12.5 mg/kg, po bid for 18 days relative to control; type: functional
[34] = target: T1, Dual specificity tyrosine-phosphorylation-regulated kinase 3 (Homo sapiens); experiment: Inhibition of DYRK3 (unknown origin) at 1 uM relative to control
[35] = test system: KG-1; experiment: Antitumor activity against human KG1 cells xenografted in nude mouse assessed as tumor growth at 50 mg/kg, po bid for 18 days relative to control; type: functional
[36] = target: Serine/threonine-protein kinase pim-2 (Homo sapiens, UniProt Q9P1W9); experiment: Inhibition of PIM2 (unknown origin) assessed as reduction in BAD phosphorylation at Ser-112 residue by TR-FRET assay
[37] = Half life in rat at 3 mg/kg, iv administered as single dose; type: ADME, organism-based; conditions: in vivo
[38] = target: Cyclin-dependent kinase 3 (Homo sapiens) (UniProt Q00526); experiment: Inhibition of CDK3 (unknown origin) at 1 uM relative to control
[39] = target: Cyclin-dependent kinase 2 (Homo sapiens) (UniProt P24941); experiment: Inhibition of CDK2 (unknown origin) at 1 uM relative to control
[40] = target: Cyclin-dependent kinase 5 (Homo sapiens) (UniProt Q00535); experiment: Inhibition of CDK5 (unknown origin) at 1 uM relative to control
[41] = AUC (0 to infinity) in rat at 3 mg/kg, iv administered as single dose; type: ADME, organism-based; design: dose 3 mg/kg, route intravenous, time infinity; conditions: in vivo
[42] = Plasma concentration in mouse xenografted with human KG1 cells at 25 mg/kg, po administered as single dose and measured at 8 hrs post dose; type: ADME, organism-based
[43] = Toxicity in nude mouse xenografted with human KG1 cells assessed as body weight loss at 12.5 to 50 mg/kg, po bid for 18 days relative to control; type: organism-based; conditions: in vivo, 432 h
[44] = target: Cyclin-dependent kinase 1 (Homo sapiens) (UniProt P06493); experiment: Inhibition of CDK1 (unknown origin) at 0.1 uM relative to control
[45] = target: Serine/threonine-protein kinase PIM (Homo sapiens, UniProt P11309+Q9P1W9+Q86V86); experiment: Inhibition of PIM in human KG1 cells assessed as reduction in pS6 level; type: cell-based
[46] = test system: KG-1; experiment: Antiproliferative activity against human KG1 cells; type: functional, cell-based; conditions: Homo sapiens, KG-1
[47] = target: Voltage-gated inwardly rectifying potassium channel KCNH2 (Homo sapiens, UniProt Q12809); experiment: Inhibition of human ERG

**Q.** With `COCCC#Cc1c(Cl)c2c(Cl)cc(C(N)=O)nc2n1[C@H]1CCCNC1` as the compound, how does the Cmax [1] read?
**A.** 140 nM

**Q.** What about the Cmax [2] of the same compound?
**A.** 320 nM

**Q.** And the hepatic extraction ratio at 5 µM [3]?
**A.** 0.23

**Q.** What about the concentration at 24 h [4] of the same compound?
**A.** 60 nM

**Q.** What about the concentration at 8 h [5] of the same compound?
**A.** 24000 nM

**Q.** And the fraction unbound [6]?
**A.** 0.02

**Q.** What about the inhibition [7] of the same compound?
**A.** 54%

**Q.** And the Cmax [8]?
**A.** 92 ng/mL

**Q.** And the inhibition [9]?
**A.** 23%

**Q.** What about the Cmax [10] of the same compound?
**A.** 520 nM

**Q.** What about the inhibition [11] of the same compound?
**A.** 20%

**Q.** What about the inhibition in vivo at 25 mg/kg [12] of the same compound?
**A.** ≤ 64%

**Q.** And the inhibition [13]?
**A.** 15%

**Q.** And the concentration at 24 h [14]?
**A.** 7900 nM

**Q.** What about the clearance [15] of the same compound?
**A.** 113 mL/min/kg

**Q.** What about the Papp at 5 µM [16] of the same compound?
**A.** 4.1 ×10⁻⁶ cm/s

**Q.** And the bioavailability [17]?
**A.** 46%

**Q.** What about the solubility thermodynamic [18] of the same compound?
**A.** 86 µM (≈ 34 µg/mL)

**Q.** And the hepatic extraction ratio at 5 µM [19]?
**A.** 0.5

**Q.** What about the inhibition [20] of the same compound?
**A.** 26%

**Q.** What about the inhibition [21] of the same compound?
**A.** 24%

**Q.** And the IC50 [22]?
**A.** 0.8 nM

**Q.** And the Ki [22]?
**A.** 0.4 nM

**Q.** What about the half-life [23] of the same compound?
**A.** 3.59 h

**Q.** And the inhibition [24]?
**A.** 90%

**Q.** What about the inhibition [25] of the same compound?
**A.** 51%

**Q.** And the T/C [26]?
**A.** 56%

**Q.** What about the inhibition [27] of the same compound?
**A.** 81%

**Q.** And the inhibition [28]?
**A.** 48%

**Q.** What about the inhibition in vivo at 25 mg/kg [29] of the same compound?
**A.** 56%

**Q.** And the Vd [30]?
**A.** 18.6 L/kg

**Q.** What about the inhibition [31] of the same compound?
**A.** 88%

**Q.** And the AUC(0-inf) [32]?
**A.** 643 ng·h/mL

**Q.** What about the T/C [33] of the same compound?
**A.** 60%

**Q.** What about the inhibition [34] of the same compound?
**A.** 68%

**Q.** What about the T/C [35] of the same compound?
**A.** 33%

**Q.** What about the IC50 [36] of the same compound?
**A.** 5.1 nM

**Q.** What about the half-life [37] of the same compound?
**A.** 2.75 h

**Q.** What about the inhibition [38] of the same compound?
**A.** 73%

**Q.** And the inhibition [39]?
**A.** 71%

**Q.** And the inhibition [40]?
**A.** 89%

**Q.** And the AUC(0-inf) [41]?
**A.** 405 ng·h/mL

**Q.** And the concentration at 8 h [42]?
**A.** 920 nM

**Q.** And the Activity [43]?
**A.** < 10%

**Q.** What about the inhibition [44] of the same compound?
**A.** 14%

**Q.** What about the EC50 [45] of the same compound?
**A.** 27 nM

**Q.** What about the EC50 [46] of the same compound?
**A.** 39 nM

**Q.** And the IC50 [47]?
**A.** 3000 nM
